Results from ChEMBL document CHEMBL1151219, “Bioactive diterpenoids, a new jatrophane and two ent-abietanes, and other constituents from Euphorbia pubescens” (2004).
Calls of active or inactive are those of the source. No cut-off for these calls is given here.

Columns and labels:
MCF7 = assay: Growth inhibition of human MCF7 cells after 48 hrs by SRB assay; assay type: functional; settings: MCF7, 48 h
NCI-H460 = assay: Growth inhibition of human NCI-H460 cells after 48 hrs by SRB assay; assay type: functional; settings: NCI-H460, 48 h
SF-268 [1] = assay: Growth inhibition of human SF268 cells after 48 hrs by SRB assay; assay type: functional; settings: SF-268, 48 h
Pseudomonas aeruginosa = assay: Antibacterial activity against Pseudomonas aeruginosa ATCC 27853 at 40 ug/spot after 24 hrs by bioautographic agar overlay method; assay type: functional, organism-based
SF-268 [2] = assay: Growth inhibition of human SF268 cells at 100 uM after 48 hrs by SRB assay; assay type: functional, cell-based
Staphylococcus aureus = assay: Antibacterial activity against Staphylococcus aureus ATCC 6538P at 2.5 ug/spot after 24 hrs by bioautographic agar overlay method; assay type: functional, organism-based
Escherichia coli = assay: Antibacterial activity against Escherichia coli ATCC 25922 at 40 ug/spot after 24 hrs by bioautographic agar overlay method; assay type: functional, organism-based

| SMILES | GI50 (MCF7) [µM] | GI50 (NCI-H460) [µM] | GI50 (SF-268 [1]) [µM] | Activity (Pseudomonas aeruginosa) | Activity (SF-268 [2]) | Activity (Staphylococcus aureus) | Activity (Escherichia coli) |
| --- | --- | --- | --- | --- | --- | --- | --- |
| COc1cccc2c1C(=O)c1c(O)c3c(c(O)c1C2=O)C[C@@](O)(C(=O)CO)C[C@@H]3O[C@H]1C[C@H](N)[C@H](O)[C@H](C)O1 [DOXORUBICIN] | 42.8 | 0.094 | 0.093 |  |  |  |  |
| C=C1C[C@H](OC(C)=O)C(=O)C(C)(C)/C=C/[C@@H](C)C(=O)[C@@]2(OC(C)=O)C[C@H](C)[C@H](OC(=O)c3ccccc3)[C@]2(O)[C@H]1OC(C)=O [PUBESCENOL] | 69 | 55.6 | 75.2 |  |  |  |  |

The next lines start with results.

| GI50 (MCF7) [µM] | GI50 (NCI-H460) [µM] | SMILES | GI50 (SF-268 [1]) [µM] | Activity (Pseudomonas aeruginosa) | Activity (SF-268 [2]) | Activity (Staphylococcus aureus) | Activity (Escherichia coli) |
| --- | --- | --- | --- | --- | --- | --- | --- |
| 67.5 | 72.8 | CC1=C2C=C3CC[C@@H]4C(C)(C)[C@H](O)CC[C@@]4(C)[C@@H]3C[C@H]2OC1=O [HELIOSCOPINOLIDE A] | > 100 | inactive | inactive | Active | inactive |
| 77 | > 100 | CC1=C2C=C3CC[C@@H]4C(C)(C)[C@@H](O)CC[C@@]4(C)[C@@H]3C[C@H]2OC1=O [HELIOSCOPINOLIDE B] | > 100 | inactive | inactive | Active | inactive |
| 37.5 | 37.5 | CC(=O)O[C@H]1[C@H](C)C[C@]2(O)C(=O)/C(C)=C/CC(C)(C)[C@H](OC(C)=O)C[C@@H](OC(=O)c3ccccc3)/C(C)=C/[C@@H]12 [PUBESCENE D] | 90.1 |  |  |  |  |
